US20080280879A1, “SUBSTITUTED HETEROCYCLIC DERIVATIVES AND THEIR PHARMACEUTICAL USE AND COMPOSITIONS” (priority 2007, published 2008)
In brackets after ≈: the same amount, converted by molar mass.

How the values were obtained:
Assay type in all cases: cell-based, Staphylococcus aureus
Staph aureus 1031 [1] = experiment: MIC, microtiter broth dilution (CLSI M7-A7), Assay 2, Table 12 column F, no serum; conditions: Staphylococcus aureus, 1031, Staph aureus 1031, Assay 2, no serum
Experimental: (§1) The assays described herein include a panel of bacterial isolates of Staphylococcus aureus. Assay 1 comprises the strains noted in Columns A through E, and Assay 2 comprises the strains noted in Columns F through H. The assays are performed in microtiter trays according to Methods for Dilution Antimicrobial Susceptibility Tests for Bacteria that Grow Aerobically; Approved Standard-7th edition (M7-A7) and interpreted according to the Performance Standards for Antimicrobial Susceptibility Testing; 16th Informational Supplement (M100-S16) published by Clinical Laboratory Standards Institute (CLSI). The antibacterial activity is presented in the form of a minimum inhibitory concentration (MIC) value in μg/ml format. The MIC value represents the lowest concentration of drug measured which prevented macroscopically visible growth under the conditions and specific doses tested. The compounds were initially dissolved in DMSO as 30 mM stocks and diluted accordingly to adjust to a concentration of 10 mg/ml or the compounds were dissolved in DMSO at a concentration of 10 mg/ml. For assessment of activity in the presence of human serum, S. aureus 1146 and S. aureus 1031 were inoculated into Mueller-Hinton Broth with 50% pooled inactivated human serum. In some cases, compounds were tested more than once in a particular assay. Where noted, the MIC value shown in Table 12 represents the geometric mean of the data from multiple runs.
(§2) It should be understood that the data in columns A-H represents MIC data in μg/ml and the notation “<=” means ‘less than or equal to’.

Staph aureus 1031 [2] = experiment: MIC in Mueller-Hinton Broth with 50% pooled inactivated human serum, Assay 2, Table 12 column G; conditions: Staphylococcus aureus, 1031, Staph aureus 1031, Assay 2, 50% human serum
Experimental: as §1, §2

Staph aureus 2810 = experiment: MIC, microtiter broth dilution (CLSI M7-A7), Assay 2, Table 12 column H, no serum; conditions: Staphylococcus aureus, 2810, Staph aureus 2810, Assay 2, no serum
Experimental: as §1, §2

Staph aureus 1095 MRSA = experiment: MIC, microtiter broth dilution (CLSI M7-A7), Assay 1, Table 12 column A, no serum; conditions: Assay 1, no serum; for MIC: Staphylococcus aureus, MRSA
Method in brief: (§3)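 MIC values in μg/ml, taken as lowest drug concentration without macroscopically visible growth, geometric mean where run repeatedly. For serum-shifted testing, strains grew in Mueller-Hinton Broth plus 50% pooled inactivated human serum; otherwise CLSI M7-A7 microtiter dilution, M100-S16 interpretation.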

Staph aureus 1146 [3] = experiment: MIC, microtiter broth dilution (CLSI M7-A7), Assay 1, Table 12 column B, no serum; conditions: for MIC: Staphylococcus aureus, 1146, Staph aureus 1146, Assay 1, no serum; for MIC, column B: Staph aureus 1146, Assay 1, no serum
Method in brief: as §3

Staph aureus 1146 [4] = experiment: MIC in Mueller-Hinton Broth with 50% pooled inactivated human serum, Assay 1, Table 12; conditions: for MIC: Staphylococcus aureus, 1146, Staph aureus 1146, Assay 1, 50% human serum, read-out: MIC, column C; for MIC, column C: Staph aureus 1146, Assay 1, 50% human serum
Method in brief: as §3

Staph aureus 2811 = experiment: MIC, microtiter broth dilution (CLSI M7-A7), Assay 1, Table 12 column D, no serum; conditions: for MIC: Staphylococcus aureus, 2811, Staph aureus 2811, Assay 1, no serum; for MIC, column D: Staph aureus 2811, Assay 1, no serum
Method in brief: as §3

Staph aureus 2812 = experiment: MIC, microtiter broth dilution (CLSI M7-A7), Assay 1, Table 12 column E, no serum; conditions: for MIC: Staphylococcus aureus, 2812, Staph aureus 2812, Assay 1, no serum; for MIC, column E: Staph aureus 2812, Assay 1, no serum
Method in brief: as §3

SMILES	MIC (Staph aureus 1031 [1]) [µg/mL]	MIC (Staph aureus 1031 [2]) [µg/mL]	MIC (Staph aureus 2810) [µg/mL]	MIC (Staph aureus 1095 MRSA) [µg/mL]	MIC (Staph aureus 1146 [3]) [µg/mL]	MIC (Staph aureus 1146 [4]) [µg/mL]	MIC (Staph aureus 2811) [µg/mL]	MIC (Staph aureus 2812) [µg/mL]	MIC, column A (Staph aureus 1095 MRSA) [µg/mL]	MIC, column B (Staph aureus 1146 [3]) [µg/mL]	MIC, column C (Staph aureus 1146 [4]) [µg/mL]	MIC, column D (Staph aureus 2811) [µg/mL]	MIC, column E (Staph aureus 2812) [µg/mL]
COc1ccc2nccc(C(O)CC[C@@H]3CCN(C4CCc5cc(F)ccc54)C[C@@H]3C(=O)O)c2c1 (stereo partly drawn) [Example 74, (3R,4R)-1-(5-fluoro-2,3-dihydro-1H-inden-1-yl)-4-(3-hydroxy-3-(6-methoxyquinolin-4-yl)propyl)piperidine-3-carboxylic acid]	> 64	> 64	> 64										
COc1ccc2nccc(C(O)CC[C@@H]3CCN(C4CC(c5ccccc5)C4C)C[C@@H]3C(=O)O)c2c1 (stereo partly drawn) [Example 43, (3R,4R)-4-[3-hydroxy-3-(6-methoxyquinolin-4-yl)propyl]-1-(2-methyl-3-phenylcyclobutyl)piperidine-3-carboxylic acid]				0.25 (≈ 0.512 µM)	≤ 0.0625	0.5 (≈ 1.02 µM)	≤ 0.0625	≤ 0.0625					
COc1ccc2nccc(C(O)CC[C@@H]3CCN(C4CC(c5nnc(C)o5)C4)C[C@@H]3C(=O)O)c2c1 (stereo partly drawn) [Example 110, (3R,4R)-4-[3-hydroxy-3-(6-methoxyquinolin-4-yl)propyl]-1-[3-(5-methyl-1,3,4-oxadiazol-2-yl)cyclobutyl]piperidine-3-carboxylic acid]				> 64	32 (≈ 66.6 µM)	> 64	> 64	> 64					
COc1ccc2nccc([C@@H](O)CC[C@@H]3CCN(C4CC(c5cccc(OC)c5F)C4)C[C@@H]3C(=O)O)c2c1 (stereo partly drawn) [Example 208, (3R,4R)-1-[3-(2-fluoro-3-methoxyphenyl)cyclobutyl]-4-[(3S)-3-hydroxy-3-(6-methoxyquinolin-4-yl)propyl]piperidine-3-carboxylic acid]				64 (≈ 122 µM)	32 (≈ 61.2 µM)	> 64	32 (≈ 61.2 µM)	64 (≈ 122 µM)					
COc1ccc2nccc(C(O)CC[C@@H]3CCN(C4CC(c5nc(CC6CC6)no5)C4)C[C@@H]3C(=O)O)c2c1 (stereo partly drawn) [Example 170, (3R,4R)-1-{3-[3-(cyclopropylmethyl)-1,2,4-oxadiazol-5-yl]cyclobutyl}-4-[3-hydroxy-3-(6-methoxyquinolin-4-yl)propyl]piperidine-3-carboxylic acid]				> 64	> 64	> 64	> 64	> 64					
COc1ccc2ncc(F)c(C(O)CC[C@@H]3CCN(C4CC(c5c(F)cccc5F)C4)C[C@@H]3C(=O)O)c2n1 (stereo partly drawn) [Example 189, (3R,4R)-1-[3-(2,6-difluorophenyl)cyclobutyl]-4-[3-(3-fluoro-6-methoxy-1,5-naphthyridin-4-yl)-3-hydroxypropyl]piperidine-3-carboxylic acid]									<0.0625	<0.0625	0.125 (≈ 0.236 µM)	<0.0625	<0.0625
COC(=O)[C@H]1CN(C2CC(c3cc(C)no3)C2)CC[C@H]1CCC(O)c1ccnc2ccc(OC)cc12 (stereo partly drawn) [Example 105, methyl (3R,4R)-4-[3-hydroxy-3-(6-methoxyquinolin-4-yl)propyl]-1-[3-(3-methylisoxazol-5-yl)cyclobutyl]piperidine-3-carboxylate]				1 (≈ 2.03 µM)	2 (≈ 4.05 µM)	> 64	2 (≈ 4.05 µM)	2 (≈ 4.05 µM)					
COc1ccc2nccc(C(O)CC[C@@H]3CCN(C4CC(c5cccc(F)c5F)C4)C[C@@H]3C(=O)O)c2c1 (stereo partly drawn) [Example 36, (3R,4R)-1-[3-(2,3-difluorophenyl)cyclobutyl]-4-[3-hydroxy-3-(6-methoxyquinolin-4-yl)propyl] piperidine-3-carboxylic acid]				0.125 (≈ 0.245 µM)	≤ 0.0625	2 (≈ 3.92 µM)	≤ 0.0625	≤ 0.0625					
COc1ccc2ncc(F)c(C(O)CC[C@@H]3CCN(C4CC(c5cc(F)ccc5F)C4)C[C@@H]3C(=O)O)c2n1 (stereo partly drawn) [Example 218, (3R,4R)-1-[3-(2,5-difluorophenyl)cyclobutyl]-4-[3-(3-fluoro-6-methoxy-1,5-naphthyridin-4-yl)-3-hydroxypropyl]piperidine-3-carboxylic acid]									0.125 (≈ 0.236 µM)	<0.0625	2.00 (≈ 3.78 µM)	<0.0625	<0.0625
COc1ccc2nccc(C(CC[C@@H]3CCN(C4CC(c5ccccc5)C4)C[C@@H]3C(=O)O)N3CCOCC3)c2c1 (stereo partly drawn) [Example 139]									2 (≈ 3.68 µM)	2 (≈ 3.68 µM)	16 (≈ 29.4 µM)	4 (≈ 7.36 µM)	2 (≈ 3.68 µM)
